# According to ChEMBL document CHEMBL1806436, “Structure--activity relationship studies of novel arylsulfonylimidazolidinones for their anticancer activity” (Eur J Med Chem, 2011):
# Legend:
# K562 = test: Anticancer activity against human K562 cells by MTT assay; type: functional, cell-based
# SK-OV-3 = test: Anticancer activity against human SKOV3 cells by MTT assay; type: functional, cell-based
# COLO 205 = test: Anticancer activity against human COLO205 cells by MTT assay; type: functional, cell-based
# [1] = Anticancer activity against human KATO III cells by MTT assay; type: functional, cell-based, KATO III cell
# A549 = test: Anticancer activity against human A549 cells by MTT assay; type: functional, cell-based
# [2] = Anticancer activity against mouse P388D1 cells by MTT assay; type: functional, cell-based
# SW-620 [3] = test: Anticancer activity against human SW620 cells xenografted in BALB/c nu/nu mouse assessed as tumor growth inhibition at 65 mg/kg, po every alternative day for 12 days measured on day 19; type: functional; settings: read-out: TGI
# Mus musculus [4] = test: Toxicity in human SW620 cells xenografted BALB/c nu/nu mouse assessed as change in body weight at 65 mg/kg, po administered every alternative day for 12 days measured on day 20 (reference value: 1.1 g); type: organism-based, SW-620; design: dose 65 mg/kg, route oral; settings: in vivo, 288 h
# NCI-H23 [5] = test: Anticancer activity against human NCI-H23 cells xenografted in BALB/c nu/nu mouse assessed as tumor growth inhibition at 65 mg/kg, po every alternative day for 12 days measured on day 19; type: functional; settings: read-out: TGI
# Mus musculus [6] = test: Toxicity in human NCI-H23 cells xenografted BALB/c nu/nu mouse assessed as change in body weight at 65 mg/kg, po administered every alternative day for 12 days measured on day 20 (reference value: 1.2 g); type: organism-based; design: dose 65 mg/kg, route oral; settings: in vivo, 288 h
# Mus musculus [7] = test: Toxicity in human NCI-H23 cells xenografted BALB/c nu/nu mouse assessed as change in body weight at 1 mg/kg, ip qd for 11 days followed by 2 mg/kg, ip qd on day 12 to day 14 and 3 mg/kg, ip qd on day 15 to day 18 measured on day 20 (reference value: 1.2 g); type: organism-based; settings: in vivo, 264 h
# Mus musculus [8] = test: Toxicity in human SW620 cells xenografted BALB/c nu/nu mouse assessed as change in body weight at 1 mg/kg, ip qd for 11 days followed by 2 mg/kg, ip qd on day 12 to day 14 and 3 mg/kg, ip qd on day 15 to day 18 measured on day 20 (reference value: 1.1 g); type: organism-based, SW-620; settings: in vivo, 264 h
# NCI-H23 [9] = test: Anticancer activity against human NCI-H23 cells xenografted in BALB/c nu/nu mouse assessed as tumor growth inhibition at 1 mg/kg, ip qd for 11 days followed by 2 mg/kg, ip qd on day 12 to day 14 and 3 mg/kg, ip qd on day 15 to day 18 measured on day 19; type: functional
# SW-620 [10] = test: Anticancer activity against human SW620 cells xenografted in BALB/c nu/nu mouse assessed as tumor growth inhibition at 1 mg/kg, ip qd for 11 days followed by 2 mg/kg, ip qd on day 12 to day 14 and 3 mg/kg, ip qd on day 15 to day 18 measured on day 19; type: functional
IC50 (K562) [µM],IC50 (SK-OV-3) [µM],IC50 (COLO 205) [µM],IC50 (A549) [µM],Compound,IC50 [1] [µM],IC50 [2] [µM],inhibition in vivo at 65 mg/kg (SW-620 [3]) [%],Activity (Mus musculus [4]) [g],inhibition in vivo at 65 mg/kg (NCI-H23 [5]) [%],Activity (Mus musculus [6]) [g],Activity (Mus musculus [7]) [g],Activity (Mus musculus [8]) [g],TGI (NCI-H23 [9]) [%],TGI (SW-620 [10]) [%]
2.38,5.65,3.72,> 20,CC(C)COC(=O)N1CCCc2cc(S(=O)(=O)N3CC(c4ccccc4)NC3=O)ccc21 (stereo not given),2.75,1.25,,,,,,,,
> 20,3.92,1.42,1.03,CCCOC(=O)N1CCCc2cc(S(=O)(=O)N3CC(c4ccccc4)NC3=O)ccc21 (stereo not given),3.3,2.02,,,,,,,,
> 20,> 20,> 20,> 20,CSc1ccc(NC(=O)N2CCCc3cc(S(=O)(=O)N4CC(C)(c5ccccc5)NC4=O)ccc32)cc1 (stereo not given),,> 20,,,,,,,,
3.68,9.57,4.11,> 20,CCCCOC(=O)N1CCCc2cc(S(=O)(=O)N3CC(c4ccccc4)NC3=O)ccc21 (stereo not given),4.01,2.08,,,,,,,,
> 20,3.48,4.01,1.15,COC(=O)N1CCCc2cc(S(=O)(=O)N3CC(c4ccccc4)NC3=O)ccc21 (stereo not given),16.5,2.26,,,,,,,,
> 20,19.6,10.7,> 20,O=C1NC(c2ccccc2)CN1S(=O)(=O)c1ccc2c(c1)CCCN2C(=O)C(F)(F)F (stereo not given),13.1,4.72,,,,,,,,
19.2,78.2,23.1,> 20,O=C(Nc1ccc(Cl)cc1)NS(=O)(=O)c1ccc2c(c1)CCC2 [SULOFENUR],31.4,> 100,,,,,,,,
> 20,> 20,> 20,> 20,CC1(c2ccccc2)CN(S(=O)(=O)c2ccc3c(c2)CCCN3C(=O)C(F)(F)F)C(=O)N1 (stereo not given),> 20,> 20,,,,,,,,
1.22,8.56,19.3,8.14,O=C(c1ccccc1)N1CCCc2cc(S(=O)(=O)N3CC(c4ccccc4)NC3=O)ccc21 (stereo not given),14.3,5.34,,,,,,,,
0.813,1.84,3.89,0.231,O=C(NC1CCCCC1)N1CCCc2cc(S(=O)(=O)N3CC(c4ccccc4)NC3=O)ccc21 (stereo not given),8.92,8.16,72.6,2,65.2,1.6,,,,
1.09,,11.2,,O=C(CCl)N1CCCc2cc(S(=O)(=O)N3CC(c4ccccc4)NC3=O)ccc21 (stereo not given),3.46,,,,,,,,,
0.473,2.75,6.58,4.31,C=CCOC(=O)N1CCCc2cc(S(=O)(=O)N3CC(c4ccccc4)NC3=O)ccc21 (stereo not given),5.05,0.945,,,,,,,,
12.4,9.47,> 20,5.3,COc1ccc(NC(=O)N2CCCc3cc(S(=O)(=O)N4CC(C)(c5ccccc5)NC4=O)ccc32)cc1 (stereo not given),,15.9,,,,,,,,
0.198,2.95,0.4,,COc1cccc2c1C(=O)c1c(O)c3c(c(O)c1C2=O)C[C@@](O)(C(=O)CO)C[C@@H]3O[C@H]1C[C@H](N)[C@H](O)[C@H](C)O1 [DOXORUBICIN],4.38,0.338,,,,,-1.6,-2.3,39.6,45
10.6,9.8,2.82,> 20,O=C(OCCCl)N1CCCc2cc(S(=O)(=O)N3CC(c4ccccc4)NC3=O)ccc21 (stereo not given),8.68,1.21,,,,,,,,
0.515,6.14,9.9,0.449,O=C(CCl)NC(=O)N1CCCc2cc(S(=O)(=O)N3CC(c4ccccc4)NC3=O)ccc21 (stereo not given),2.54,3.87,67,1,58.5,-0.6,,,,
3.66,> 20,> 20,2.54,NC(=O)N1CCCc2cc(S(=O)(=O)N3CC(c4ccccc4)NC3=O)ccc21 (stereo not given),3.59,12.3,,,,,,,,
> 20,10.4,7.23,> 20,O=C1NC(c2ccccc2)CN1S(=O)(=O)c1ccc2c(c1)CCCN2 (stereo not given),> 20,4.25,,,,,,,,
> 20,2.88,2.78,0.344,CCOC(=O)N1CCCc2cc(S(=O)(=O)N3CC(c4ccccc4)NC3=O)ccc21 (stereo not given),11.2,1.43,,,,,,,,
